Measured values taken from US12252457B2, “Compositions and methods for reducing tactile dysfunction, anxiety, and social impairment” (President and Fellows of Harvard College, priority 2018, dated 2025).

Assay: Bio-distribution of isoguvacine by LC-MS
Format: in vivo, mouse
Experimental: FIGS. 19A-19N show acute administration of the peripherally-restricted GABAA receptor agonist isoguvacine improves tactile hypersensitivity in five genetic and one environmental model of ASD. […] Two-way ANOVA with post-hoc Sidak's test, *, p<0.05. FIG. 19B: Response to a light air puff stimulus alone in mice following i.p. administration of either saline or 2 mg/kg midazolam treatment. Responses are expressed as percent of startle response to a 125 dB noise. Two-way ANOVA with post-hoc Sidak's test, *, p<0.05. FIG. 19C: Magnitude of startle response to a 125 dB noise in mice following i.p. administration of either saline or 2 mg/kg midazolam treatment. Responses are expressed as percent of startle response to a 125 dB noise. Two-way ANOVA with post-hoc Sidak's test, *, p<0.05. FIG. 19D: Magnitude of startle response to a 125 dB noise in mice following i.p. administration of saline, midazolam (2 mg/kg) or a peripherally-restricted GABAA receptor agonist, isoguvacine (2 mg/kg). Responses are expressed as percent of startle response to a 125 dB noise. Two-way ANOVA with post-hoc Sidak's test, *, p<0.05. FIGS. 19E-19G: Liquid chromatography mass spectrometry (LC-MS) quantified isoguvacine concentrations in cerebrospinal fluid (CSF) (FIG. 19E), blood (FIG. 19F) or liver (FIG. 19G) samples of mice treated with: i.p. saline, i.p. isoguvacine (“Iso.”, 20 mg/kg, samples collected 1, 3 or 24 hours post-injection), intracerebral injection isoguvacine (20 mg/kg, 1 hour post-injection), i.p. diazepam (“DZ”, 20 mg/kg, 1 hour post injection) or intracerebral injection diazepam (20 mg/kg, 1 hour post injection). FIG. 19H: Normalized peak chloride flux through α1β3γ2- and α2β3γ2-containing GABAA receptors in response to isoguvacine application. […] FIGS. 19I-19K: GABAA receptor subunit RNA expression levels across peripheral somatosensory neuron subtypes, for the alpha (FIG. 19I), beta (FIG. 19J), and gamma (FIG. 19K) subunit types. […] Two-way ANOVA with post-hoc Sidak's test, *, p<0.05. FIG. 19M: Response to a light air puff stimulus alone in mice following i.p. administration of either saline or 2 mg/kg isoguvacine treatment. Responses are expressed as percent of startle response to a 125 dB noise. Two-way ANOVA with post-hoc Sidak's test, *, p<0.05. FIG. 19N: Magnitude of startle response to a 125 dB noise in mice following i.p. administration of either saline or 2 mg/kg isoguvacine treatment. Responses are expressed as percent of startle response to a 125 dB noise. […]
FIGS. 28A-28U are related to FIGS. 21A-210. FIG. 28A: Liquid chromatography mass spectrometry (LC-MS) quantified isoguvacine concentrations in brain homogenate samples of mice treated with isoguvacine (2 mg/kg, i.p.) from P1-42. […] Responses are expressed as percent of startle response to a 125 dB startle noise. […]

[1] = after six-week treatment, 2 mg/kg i.p. daily starting at P0

- drug in blood and liver (20 mg/kg i.p.): detected in the blood and liver
- drug in brain or spinal cord [1]: not the brain or spinal cord
- drug in liver [1]: detected in liver
Compound: O=C(O)C1=CCNCC1 [Isoguvacine, isoguvacine]
- drug in brain or cerebrospinal fluid (20 mg/kg i.p.): undetectable in the brain or cerebrospinal fluid
